Results on 2 compounds are retold here after US20150158810A1, “PREVENTION OR SUPPRESSION OF CYRSTALLISATION OF BORIC ACID PRESENT IN AN AQUEOUS PHASE” (COMMISSARIAT À L'ÉNERGIE ATOMIQUE ET AUX ÉNERGIES …, priority 2012, published 2015).

Data set [1] in a line: crystallization of boric acid in aqueous phase, temperature cycle N. The class given is physicochemical. The method, then: (§1) The tests described in the examples hereafter are conducted by means of a device of the type of the one illustrated in the single FIGURE.
(§2) The device consists of a beaker 10 with a double glass wall 11, inside which flows a heat transfer fluid 12. The beaker 10 also contains a U-shaped metal tube 13, which contains a circulating heat transfer fluid 14.
(§3) The temperatures of the heat transfer fluids 12 and 14 are each adjusted independently of the other, by a heat generator (not shown in the single FIGURE).
(§4) However, the temperature of the heat transfer fluid 14 is adjusted so that it is always strictly less than that of the heat transfer fluid 12, typically lower by 1° C. to 10° C. If it is assumed that heat conduction of the material making up the metal tube 13 occurs without any notable loss, the walls of the tube 13 […] thus form a so-called ? cold ? element.
(§5) Two temperature cycles may be applied to an aqueous phase 15 containing boric acid, which is poured into the beaker 10.
A temperature cycle ? […]
(§6) Regardless of the relevant temperature cycle, a crystallization rate is defined at the end of one of these temperature cycles, which corresponds to the ratio of the mass of boric acid crystals measured at the end of this cycle, to the total initially introduced mass of boric acid.

Data set [2] can be described thus: crystallization of boric acid in aqueous phase, temperature cycle P (with a penalty). The class given is physicochemical. The method, then: as §1, §2, §3, §4, §5
A temperature cycle ? P ? […]
as §6

SMILES strings stand for the structures.

For `NC(CO)(CO)CO` [Tris, 2-amino-2-(hydroxymethyl)-propane-1,3-diol], in data set [1], the “reduction in the crystallization of boric acid in an aqueous phase in presence of the compound” value is reported as “appreciable reduction”.
With `OCC(CO)(CO)CO` [pentaerythritol], the “reduction of the crystallization of boric acid in an aqueous phase in presence of the compound” value in data set [2] is given as “large reduction”. For the same compound, in data set [1], the “reduction in the crystallization of boric acid in an aqueous phase in presence of the compound” value is “appreciable reduction”.
